Results as given in patent publication EP4810492A1, “NMT INHIBITOR, PREPARATION METHOD THEREFOR, AND USE THEREOF” (Nanjing Synnocare Pharmaceutical Technology Co., Ltd., priority 2023, dated 2025).

Tests used:
MV-4-11 cells = assay: Anti-proliferative activity against MV-4-11 cells (cell viability chemiluminescence); type: cell-based; details: MV4-11, 72 h; MV-4-11 human monocytic leukemia cells, three days of exposure
Procedure: This study utilized a cell proliferation assay to analyze the cytotoxicity of MV-4-11 human monocytic leukemia cells after three days of exposure to NMT1 inhibitors. The MV-4-11 cell line was purchased from Nanjing Cobuilder Biotechnology Co., Ltd., and cultured in IMDM medium (Viva cell) in an incubator (Thermo) at 37 °C with 5% CO2. In this experiment, NMT1 inhibitors were dissolved in DMSO to obtain 600 µM stock solutions. Dose-response solutions were prepared with a top endpoint compound concentration of 3 µM, followed by three-fold serial dilutions in DMSO, totaling eight data points. The final concentration of DMSO was 0.5%.
MV-4-11 cells were seeded into a white 96-well plate, 80 µL of cell suspension per well, containing 6000 MV-4-11 cells. The cell plate was placed in the CO2 incubator for overnight culture. Then, 20 µL of NMT1 inhibitor solutions at different concentrations were added to the wells. The 96-well plate was placed back into the incubator for three days. Another cell plate was prepared, and the signal was read on the day of drug addition to serve as the maximum value (Max value in the equation below) for data analysis. To this cell plate, 25 µL of cell viability chemiluminescence detection reagent was added per well, followed by incubation at room temperature for 10 minutes to stabilize the luminescence signal. A multi-label analyzer was used for reading.
The raw data were converted into inhibition rates using the equation (Sample - Min) / (Max - Min) * 100%. The IC50 values were then determined by fitting a four-parameter curve (using the "log(inhibitor) vs. response - Variable slope" model in GraphPad Prism). Min: wells treated with 0.5% DMSO; Max: Day 0 wells. Table 1 provides the inhibitory activity of the compounds of the invention on MV-4-11 cell proliferation. Table 1: Compound Inhibitory Activity against NMT1 Enzyme (IC50) and Anti-proliferative Activity against MV-4-11 Cell line (IC50)

NMT1 enzyme = target: T1, NMT1 enzyme (Homo sapiens, UniProt P30419); assay: Inhibitory activity on NMT1 enzyme catalysis (fluorescence intensity assay); type: biochemical; details: 6 nM NMT1 enzyme, 1.25 µM myristoyl-CoA, 20 µM HSPP60 SRC peptide, 45 minutes at 25 °C; read-out: NMT1 (IC50)
T1 sequence (P30419 1-496): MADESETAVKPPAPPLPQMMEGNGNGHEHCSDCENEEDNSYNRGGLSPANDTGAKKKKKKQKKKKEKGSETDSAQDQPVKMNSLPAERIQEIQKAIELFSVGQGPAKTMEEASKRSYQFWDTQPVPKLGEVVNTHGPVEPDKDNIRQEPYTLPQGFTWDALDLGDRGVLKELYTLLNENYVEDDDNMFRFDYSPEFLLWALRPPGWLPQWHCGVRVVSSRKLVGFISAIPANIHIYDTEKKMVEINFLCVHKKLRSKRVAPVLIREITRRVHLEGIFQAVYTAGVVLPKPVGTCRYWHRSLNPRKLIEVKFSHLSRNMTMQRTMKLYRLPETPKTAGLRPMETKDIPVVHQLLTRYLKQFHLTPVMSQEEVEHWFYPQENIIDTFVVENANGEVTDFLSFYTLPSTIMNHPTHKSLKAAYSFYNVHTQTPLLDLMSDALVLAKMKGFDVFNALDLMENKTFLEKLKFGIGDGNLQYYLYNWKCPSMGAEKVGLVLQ
Procedure: This study evaluated the ability of the compounds of the invention to inhibit NMT1 catalytic activity in vitro. […] The final concentration of the NMT1 enzyme was 6 nM, the final concentration of CPM (Reactive thiol fluorescence probe, Invitrogen, D346) was 1 µM, the final concentration of HSPP60 SRC was 20 µM, and the final concentration of DMSO was 0.5%.
Compounds were dissolved in DMSO to obtain 10 mM stock solutions. Dose-response solutions were prepared with a top endpoint compound concentration of 3 mM, followed by three-fold serial dilutions in DMSO, totaling ten data points. […] Then, 2.5 µL of the NMT1 enzyme working solution was added to the 384-well assay plate, followed by incubation at 25 °C for 10 minutes. Subsequently, 5 µL of the CPM and myristoyl-CoA working solution was added, the plate was centrifuged at 1000 rpm for 1 minute, and then 2.5 µL of the HSPP60 SRC working solution was added to initiate the reaction. The reaction was incubated at 25 °C for 45 minutes.
The IC50 curve of the compounds was fitted using the software XLfit 5.5.0 according to the nonlinear regression equation.

[1] = Plasma concentrations in mice following oral administration; details: ICR, mouse, po, 10 mg/kg
From the text: This study evaluated the plasma concentrations of the compounds of the present invention in mice. ICR mice were procured from JOINN Laboratories (Suzhou) Co., Ltd. At the initiation of dosing, the animals were 6-8 weeks old and weighed 18-25 g. Mice were housed in transparent plastic cages (400 mm*240 mm*200 mm). The animal facility maintained a 12-hour light/12-hour dark cycle (lights on 07:00-19:00) using fluorescent lighting. The dark period may be intermittently interrupted as required for study-related activities. Ambient temperature and relative humidity were controlled within 20-26 °C and 40-70%, respectively. Animals were fed certified rodent chow and provided with drinking water filtered and sterilized through an ultrapure water system. All animals had ad libitum access to water throughout the study. Animals were fasted for at least 12 hours prior to dosing, and food was restored 4 hours post-dosing.
Prior to dosing, body weights were recorded, and healthy animals with similar weights were selected and randomly assigned to groups (n = 3 per group) based on body weight. The compounds were formulated in a 0.5% aqueous carboxymethyl cellulose (CMC) solution and administered orally at a single dose of 10 mg/kg. Blood samples (≥0.2 mL) were collected via venipuncture at 1 h and 4 h post-dose into EDTA-K2 anticoagulant tubes. Tubes were gently inverted to mix, immediately placed in an ice-water bath, and rapidly centrifuged at 4,000 rpm for 10 min at 4 °C to separate plasma. Plasma was stored at -70 °C until analysis.
Calibration curve and QC plasma samples: Working solutions for the calibration curve and QC samples were prepared using 80% methanol in water (Thermo Fisher) as the diluent. To prepare plasma calibration standards and QC samples, 5 µL of each working solution was added to 45 µL of blank plasma and mixed. To the prepared calibration and QC samples, 300 µL of internal standard solution (tolbutamide at 8 µg/mL in acetonitrile, Thermo Fisher) was added. […] The supernatant was collected and analyzed by liquid chromatography-tandem mass spectrometry (LC-MS/MS; AB Sciex API 5000).
Plasma sample pretreatment: After thawing at room temperature, 50 µL of each plasma sample was mixed with 300 µL of the internal standard solution (tolbutamide at 8 µg/mL in acetonitrile, Thermo Fisher). […] The supernatant was collected and analyzed by LC-MS/MS (AB Sciex API 5000).
Raw chromatograms, concentrations, and accuracy data were generated using Analyst software version 1.6.3.

| Structure (SMILES) | IC50 (MV-4-11 cells) [nM] | IC50 (NMT1 enzyme) [nM] | concentration at 1 h [1] [ng/mL] | concentration at 4 h [1] [ng/mL] | concentration at 8 h [1] [ng/mL] |
| --- | --- | --- | --- | --- | --- |
| Cc1c(NS(=O)(=O)c2ccc(-c3ccc4oc5c(c4c3)CNCC5)cc2Cl)c(CCF)nn1C [Compound B50] | 17.9 | 3.95 |  |  |  |
| Cc1c(NS(=O)(=O)c2ccc(-c3ccc4sc5c(c4c3)CCNC5)cc2)c(CCF)nn1C [Compound B52] | 17.3 | 3.88 | 3630 ± 990 | 2180 ± 185 | 504 ± 71 |
| Cc1c(NS(=O)(=O)c2ccc(-c3ccc4oc5c(c4c3)CNCC5)cc2)c(CCF)nn1C [Compound B53] | 27.2 | 4.02 | 2480 ± 626 | 1020 ± 361 | 399 ± 264 |
| Cc1c(NS(=O)(=O)c2c(Cl)cc(-c3ccc4sc5c(c4c3)CCNC5)cc2Cl)c(CC(F)F)nn1C [Compound B55] | 21.1 | 3.72 |  |  |  |
| Cc1c(NS(=O)(=O)c2c(Cl)cc(-c3ccc4oc5c(c4c3)CNCC5)cc2Cl)c(CC(F)F)nn1C [Compound B56] | 19.6 | 3.49 |  |  |  |
| Cc1c(NS(=O)(=O)c2c(Cl)cc(N3CCc4sc5c(c4C3)CNCC5)cc2Cl)c(CC(F)F)nn1C [Compound B57] | 11.8 | 2.95 |  |  |  |
| Cc1c(NS(=O)(=O)c2ccc(-c3ccc4oc5c(c4c3)CNCC5)cc2Cl)c(CC(F)F)nn1C [Compound B61] | 27 | 5.21 |  |  |  |
| Cc1c(NS(=O)(=O)c2ccc(-c3ccc4sc5c(c4c3)CCNC5)cc2)c(CC(F)F)nn1C [Compound B63] | 20.4 | 3.67 |  |  |  |
| Cc1c(NS(=O)(=O)c2ccc(-c3ccc4oc5c(c4c3)CNCC5)cc2)c(CC(F)F)nn1C [Compound B64] | 30.2 | 4.08 | 1660 ± 366 | 795 ± 127 | 260 ± 63 |

Compounds with a lower IC50 (MV-4-11 cells), results first:

| IC50 (MV-4-11 cells) [nM] | IC50 (NMT1 enzyme) [nM] | concentration at 1 h [1] [ng/mL] | concentration at 4 h [1] [ng/mL] | concentration at 8 h [1] [ng/mL] | Structure (SMILES) |
| --- | --- | --- | --- | --- | --- |
| 6.05 | 2.51 |  |  |  | Cc1c(NS(=O)(=O)c2ccc(-c3ccc4sc5c(c4c3)CNCC5)cc2)c(CCF)nn1C [Compound B51] |
| 5.45 | 1.79 |  |  |  | Cc1c(NS(=O)(=O)c2c(Cl)cc(-c3ccc4sc5c(c4c3)CNCC5)cc2Cl)c(CC(F)F)nn1C [Compound B54] |
| 8.97 | 2.08 |  |  |  | Cc1c(NS(=O)(=O)c2c(Cl)cc(N3CCc4oc5c(c4C3)CCNC5)cc2Cl)c(CC(F)F)nn1C [Compound B58] |
| 5.3 | 1.93 | 1870 ± 389 | 846 ± 698 | 149 ± 114 | Cc1c(NS(=O)(=O)c2ccc(-c3ccc4sc5c(c4c3)CNCC5)cc2Cl)c(CC(F)F)nn1C [Compound B59] |
| 7.48 | 2.47 |  |  |  | Cc1c(NS(=O)(=O)c2ccc(-c3ccc4sc5c(c4c3)CNCC5)cc2)c(CC(F)F)nn1C [Compound B62] |
